Assay results reported in patent EP0450097B1, “BENZOHETEROCYCLIC COMPOUNDS” (OTSUKA PHARMACEUTICAL CO., LTD., priority 1989, dated 1991).

molecular target: T1, V₂ receptor (Rattus norvegicus, UniProt Q00788); test: V₂ receptor binding assay ([³H]-Arg-vasopressin, rat kidney plasma membrane preparations); settings: 4°C for 3 hours
T1 construct: Using rat kidney plasma membrane preparations; from tissue; host or cells: rat kidney plasma membranes
Method: Using rat kidney plasma membrane preparations prepared according to O. Hechter's method [cf: J. Bio. […] After incubation, the mixture is filtered using the glass filter (GF/F) so as to separate the membrane preparation combined with vasopressin and then washed twice with the buffer (5 ml). This glass filter is taken out and mixed with liquid scintillation cocktail. The amount of [³H]-vasopressin combined with the membrane is measured by liquid scintillation counter and the rate of the inhibitory effect of the test compound is estimated according to the following equation. Rate of the inhibitory effect (%) = 100 -(C1 - B1)/(C0 - B1)X 100 [formula] C¹: The amount of [³H]-vasopressin combined with the membrane in the presence of the test compound (in prescribed amount). C⁰: The amount of [³H)-vasopressin combined with the membrane in the absence of the test compound. B¹: The amount of [³H]-vasopressin combined with the membrane in the presence of the excess amount of vasopressin (10⁻⁶ M).
The results are expressed as IC₅₀ values, which is the concentration of the test compound required to achieve the inhibitory effect in the rate of 50 %.

T1 sequence (Q00788 whole entry): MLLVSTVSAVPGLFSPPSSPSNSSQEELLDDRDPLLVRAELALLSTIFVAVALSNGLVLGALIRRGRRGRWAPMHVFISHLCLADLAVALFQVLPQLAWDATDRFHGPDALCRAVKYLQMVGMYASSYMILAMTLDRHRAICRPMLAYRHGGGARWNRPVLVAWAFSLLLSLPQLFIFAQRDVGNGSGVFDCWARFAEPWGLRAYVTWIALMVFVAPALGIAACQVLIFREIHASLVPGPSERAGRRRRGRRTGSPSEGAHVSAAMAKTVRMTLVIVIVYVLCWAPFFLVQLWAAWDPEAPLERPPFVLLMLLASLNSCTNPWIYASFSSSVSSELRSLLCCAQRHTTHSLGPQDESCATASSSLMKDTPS

IC50 [nM] | SMILES
980 | O=C(Nc1ccc(C(=O)N2CCCc3ccccc32)cc1)c1ccccc1 [Test compound 1, 1-(4-Benzoylaminobenzoyl)-1,2,3,4-tetrahydroquinoline]
200 | O=C(Nc1ccc(C(=O)N2CCCc3ccccc32)cc1)c1cccc(Cl)c1 [compound 2]
400 | COc1cccc(C(=O)Nc2ccc(C(=O)N3CCCc4ccccc43)cc2)c1 [compound 3]
580 | N#Cc1cccc(C(=O)Nc2ccc(C(=O)N3CCCc4ccccc43)cc2)c1 [compound 4]
1200 | Nc1cccc(C(=O)Nc2ccc(C(=O)N3CCCc4ccccc43)cc2)c1 [compound 5]
200 | Cc1ccccc1C(=O)Nc1ccc(C(=O)N2CCCc3ccccc32)cc1 [compound 7]
320 | O=C(Nc1ccc(C(=O)N2CCCc3ccccc32)cc1)c1ccccc1C(F)(F)F [compound 8]
530 | O=C(Nc1ccc(C(=O)N2CCCc3ccccc32)cc1)c1ccccc1[N+](=O)[O-] [compound 9]
82 | O=C(Nc1ccc(C(=O)N2CCCc3ccccc32)cc1)c1cc(Cl)cc(Cl)c1 [compound 10]
1050 | CC(C)(C)CC(=O)Nc1ccc(C(=O)N2CCCc3ccccc32)cc1 [compound 11]
1970 | O=C(CC1CCCCC1)Nc1ccc(C(=O)N2CCCc3ccccc32)cc1 [compound 12]
1020 | O=C(Cc1ccccc1)Nc1ccc(C(=O)N2CCCc3ccccc32)cc1 [compound 13]
230 | O=C(Nc1ccc(C(=O)N2CCCc3ccccc32)cc1)C1CCCCC1 [compound 14]
130 | O=C(Nc1ccc(C(=O)N2CCCc3ccccc32)cc1)C1CCCCCC1 [compound 15]
170 | O=C(Nc1ccc(C(=O)N2CCCc3ccccc32)cc1)C1CCCCCCC1 [compound 16]
1000 | O=C(Nc1ccc(C(=O)N2CCCc3ccccc32)cc1)c1cccc2ccccc12 [compound 18]
1400 | O=C(Nc1ccccc1C(=O)N1CCCc2ccccc21)c1ccc2ccccc2c1 [compound 20]
1000 | COc1ccc(NC(=O)c2ccc(C(=O)N3CCCc4ccccc43)cc2)cc1 [compound 21]
330 | Cc1ccccc1NC(=O)c1ccc(C(=O)N2CCCc3ccccc32)cc1 [compound 22]
1070 | O=C(Nc1cccc(Cl)c1)c1ccc(C(=O)N2CCCc3ccccc32)cc1 [compound 23]
1090 | O=C(Nc1cc(Cl)cc(Cl)c1)c1ccc(C(=O)N2CCCc3ccccc32)cc1 [compound 24]

IC50 [nM] | SMILES
1670 | O=C(NC1CCCCC1)c1ccc(C(=O)N2CCCc3ccccc32)cc1 [compound 25]
98 | N#Cc1cccc(C(=O)Nc2ccc(C(=O)N3CCCCc4ccccc43)cc2)c1 [compound 31]
49 | O=C(Nc1ccc(C(=O)N2CCCCCc3ccccc32)cc1)C1CCCCC1 [compound 34]
200 | O=C(Nc1ccc(C(=O)N2CCCCCc3ccccc32)cc1)c1ccccc1 [compound 35]
160 | COc1cccc(C(=O)Nc2ccc(C(=O)N3CCCCCc4ccccc43)cc2)c1 [compound 37]
29 | Cc1cccc(C(=O)Nc2ccc(C(=O)N3CCCCCc4ccccc43)cc2)c1C [compound 38]
71 | O=C(Nc1ccc(C(=O)N2CCCCCc3ccccc32)cc1)c1cc(Cl)cc(Cl)c1 [compound 39]
200 | Cc1cccc(C(=O)Nc2ccc(C(=O)N3CCOCc4ccccc43)cc2)c1 [compound 41]
63 | Cc1cccc(C(=O)Nc2ccc(C(=O)N3CCOCc4ccccc43)cc2)c1C [compound 42]
170 | O=C(Nc1ccc(C(=O)N2CCOCc3ccccc32)cc1)c1cc(Cl)cc(Cl)c1 [compound 43]
50 | CC1Cc2ccccc2N(C(=O)c2ccc(NC(=O)C3CCCCC3)cc2)C1 (stereo not shown) [compound 44]
190 | CC1Cc2ccccc2N(C(=O)c2ccc(NC(=O)c3ccccc3)cc2)C1 (stereo not shown) [compound 45]
200 | COc1cccc(C(=O)Nc2ccc(C(=O)N3CC(C)Cc4ccccc43)cc2)c1 (stereo not shown) [compound 47]
21 | Cc1cccc(C(=O)Nc2ccc(C(=O)N3CC(C)Cc4ccccc43)cc2)c1C (stereo not shown) [compound 48]
63 | CC1Cc2ccccc2N(C(=O)c2ccc(NC(=O)c3cc(Cl)cc(Cl)c3)cc2)C1 (stereo not shown) [compound 49]
1300 | CN1CCN(C(=O)c2ccc(NC(=O)C3CCCCC3)cc2)c2ccccc21 [compound 50]
400 | Cc1ccccc1C(=O)Nc1ccc(C(=O)N2CCN(C)c3ccccc32)cc1 [compound 51]
320 | Cc1cccc(C(=O)Nc2ccc(C(=O)N3CCN(C)c4ccccc43)cc2)c1C [compound 52]
1600 | CN1CCN(C(=O)c2ccc(NC(=O)c3cc(Cl)cc(Cl)c3)cc2)c2ccccc21 [compound 53]
110 | CC1CCc2ccccc2N1C(=O)c1ccc(NC(=O)c2cc(Cl)cc(Cl)c2)cc1 (stereo not shown) [compound 54]
91 | CC1CCN(C(=O)c2ccc(NC(=O)c3cc(Cl)cc(Cl)c3)cc2)c2ccccc21 (stereo not shown) [compound 55]

IC50 [nM] | SMILES
530 | CN1CCN(C(=O)c2ccc(NC(=O)C3CCCCC3)cc2)c2ccccc2C1 [compound 79]
150 | Cc1cccc(C(=O)Nc2ccc(C(=O)N3CCN(C)Cc4ccccc43)cc2)c1C [compound 81]
730 | COc1cccc(C(=O)Nc2ccc(C(=O)N3CCN(C)Cc4ccccc43)cc2)c1 [compound 83]
580 | CCCN1CCN(C(=O)c2ccc(NC(=O)c3cccc(C)c3C)cc2)c2ccccc2C1 [compound 86]
46 | CN1CCCN(C(=O)c2ccc(NC(=O)c3ccccc3)cc2)c2ccccc21 [compound 87]
35 | CN1CCCN(C(=O)c2ccc(NC(=O)c3cc(Cl)cc(Cl)c3)cc2)c2ccccc21 [compound 89]
5 | Cc1cccc(C(=O)Nc2ccc(C(=O)N3CCCN(C)c4ccccc43)cc2)c1C [compound 91]
410 | COc1cc(C(=O)N2CCN(C)Cc3ccccc32)ccc1NC(=O)c1cc(Cl)cc(Cl)c1 [compound 92]
520 | Cc1cccc(C(=O)Nc2ccc(C(=O)N3CC(N4CCCC4)Cc4ccccc43)cc2)c1C (stereo not shown) [compound 93]
95 | Cc1ccc2c(c1)CCCN2C(=O)c1ccc(NC(=O)c2cc(Cl)cc(Cl)c2)cc1 [compound 94]
89 | COc1ccc2c(c1)CCCN2C(=O)c1ccc(NC(=O)c2cc(Cl)cc(Cl)c2)cc1 [compound 95]
39 | O=C(Nc1ccc(C(=O)N2CC(CO)Cc3ccccc32)cc1)c1cc(Cl)cc(Cl)c1 (stereo not shown) [compound 96]
24 | CNC1CCN(C(=O)c2ccc(NC(=O)c3cc(Cl)cc(Cl)c3)cc2)c2ccccc21 (stereo not shown) [compound 97]
450 | NC1Cc2ccccc2N(C(=O)c2ccc(NC(=O)c3cc(Cl)cc(Cl)c3)cc2)C1 (stereo not shown) [compound 98]
1600 | CC(=O)NC1Cc2ccccc2N(C(=O)c2ccc(NC(=O)c3cc(Cl)cc(Cl)c3)cc2)C1 (stereo not shown) [compound 99]
11 | CN(C)C1CCN(C(=O)c2ccc(NC(=O)c3cc(Cl)cc(Cl)c3)cc2)c2ccccc21 (stereo not shown) [compound 100]
540 | O=C(CN1CCCCC1)Nc1ccc(C(=O)N2CCCCc3ccccc32)cc1 [compound 103]
370 | O=C(COc1ccccc1)Nc1ccc(C(=O)N2CCCCc3ccccc32)cc1 [compound 104]
440 | CC(C)(COc1ccccc1)NCC(=O)Nc1ccc(C(=O)N2CCCCc3ccccc32)cc1 [compound 106]
